Like-named read-outs stand apart in the source and are kept apart here.
Experiments:
AChE = molecular target: T1, AChE (Electrophorus electricus, UniProt O42275); assay: biochemical; assay type: biochemical; settings: for inhibition at 200 µM: 200 µM compound; for IC50: means ± SD of three experiments
T1 construct: purchased Sigma-Aldrich, Hamburg, Germany
Method: AChE and BChE inhibitory activity of the newly synthesized pyrrole-based compounds was measured using the microplate assay described by Ellman et al. with the modifications added by López et al.. The compounds were tested at concentrations between 0.01 and 200 μM. First, they were dissolved in phosphate buffer (PBS) (8 mM K2HPO4, 2.3 mM NaH2PO4, 0.15 M NaCl, pH 7.5), assisted by the addition of no more than 5% MeOH. Then, they were serially diluted with PBS to provide the concentration range needed. Acetylcholinesterase from Electrophorus electricus and butyrylcholinesterase from equine serum (Sigma-Aldrich, Hamburg, Germany) were used with a substrate solution of 5,5′-dithiobis(2-nitrobenzoic acid) (DTNB) with acetylthiocholine iodide (ATCI) or butyrylthiocholine iodide (BTCI), respectively (0.04 M Na2HPO4, 0.2 mM DTNB, 0.24 mM ATCI or BTCI, pH 7.5). A total of 50 μL of AChE or BChE (0.25 U/mL, in PBS) and 50 μL of the tested compound solution were added to the wells. Incubation of the plates was performed at room temperature for 30 min. Then, 100 μL of substrate solution was added to start the enzymatic reaction. […] Enzyme activity was calculated as an inhibition percentage compared to an assay including buffer instead of an inhibitor.

[1] = molecular target: T2, recombinant human MAO-A (hMAOA) (Homo sapiens, UniProt P21397); assay: MAO-A inhibition, fluorometric Amplex UltraRed assay; assay type: biochemical; settings: for inhibition at 1 µM: read-out: Inhibition Activity 1 µM MAO-A
T2 sequence (P21397 1-527): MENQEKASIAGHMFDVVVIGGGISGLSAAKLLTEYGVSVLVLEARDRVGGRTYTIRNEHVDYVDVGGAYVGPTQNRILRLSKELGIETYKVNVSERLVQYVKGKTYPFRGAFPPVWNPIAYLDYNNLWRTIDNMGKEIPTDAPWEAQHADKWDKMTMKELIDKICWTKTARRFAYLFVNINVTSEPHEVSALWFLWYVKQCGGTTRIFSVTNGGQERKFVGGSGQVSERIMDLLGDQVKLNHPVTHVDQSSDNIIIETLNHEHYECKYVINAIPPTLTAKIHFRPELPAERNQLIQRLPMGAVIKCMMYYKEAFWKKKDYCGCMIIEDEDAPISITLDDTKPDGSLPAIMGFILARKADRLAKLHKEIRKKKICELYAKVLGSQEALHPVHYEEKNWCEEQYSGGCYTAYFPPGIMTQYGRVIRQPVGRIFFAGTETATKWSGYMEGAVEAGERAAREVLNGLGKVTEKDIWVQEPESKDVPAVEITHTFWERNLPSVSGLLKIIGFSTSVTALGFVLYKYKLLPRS
Method: Monoamine oxidase (MAO) activity for both recombinant human MAO-A (hMAOA) and MAO-B (hMAOB) was assessed using a fluorometric assay based on the Amplex® UltraRed reagent. This method, originally reported by Bautista-Aguilera et al. and later adapted with minor changes by Kasabova-Angelova et al., detects hydrogen peroxide or peroxidase activity present in enzymes or biological samples. In this assay, Amplex® Red reacts in a 1:1 molar ratio with hydrogen peroxide in the presence of peroxidase, producing the red-fluorescent compound resorufin. Due to resorufin’s strong extinction coefficient (58,000 ± 5000 cm^−1·M^−1), measurements could be accurately taken using either fluorometric or spectrophotometric methods. […] The control conditions included the use of purified hMAOA or hMAOB in reaction buffer, enzyme solutions with hydrogen peroxide, and buffer alone. All the test compounds were initially prepared at a 1 µM final concentration. These compounds were combined with either hMAOA or hMAOB and loaded into a 96-well plate (with eight replicates per test compound), followed by incubation for 30 min at 37 °C in the dark. Subsequently, a 50 µL detection mix was added to each well. This mix contained Amplex® Red, horseradish peroxidase (HRP), and tyramine substrate, all prepared in a reaction buffer. As this enzymatic reaction proceeded continuously, the fluorescence signal was recorded every 30 min (at 0, 30, 60, 90, 120, and 150 min) to track enzymatic kinetics.

[2] = system: isolated rat brain microsomes; assay: Pro-oxidant effect of compounds alone on isolated rat brain microsomes (MDA); assay type: cell-based; settings: compound alone, 100 μM, vs non-treated microsomes
Method: (§1) Two types of buffers were used for the isolation of the rat brain synaptosomes and mitochondria. Buffer A was 5 mM HEPES and 0.32 M Sucrose; Buffer B was 290 mM NaCl, 0.95 mM MgCl2 × 2H2O, 10 mM KCl, 2.4 mM CaCl2 × 2H2O, 2.1 mM NaH2PO4, 44 mM HEPES, 13 mM D-Glucose. For the gradient centrifugation, Percoll reagent was used. A stock solution of 90% Percoll was used to prepare 16%, 10% and 7.5% solutions. All the solutions were used as described below. Immediately after harvesting, synaptosomes, microsomes, and mitochondria were incubated with the exam compounds for 1 h. For assessing the possible neurotoxicity of the most MAOB active compounds, the sub-cellular fractions were incubated with 100 µM of them, and for evaluating their possible neuroprotective and antioxidant activities in different models of neurotoxicity, the sub-cellular fractions were incubated with 50µM of them. The protein measurement of all the sub-cellular fractions was made by the method of Lowry et al., 1951 [57].
(§2) The brain was homogenized in 9 vol. of 0.1 M Tris buffer containing 0.1 mM Dithiothreitol, 0.1 mM Phenylmethylsulfonyl fluoride, 0.2 mM EDTA, 1.15% KCl, and 20% (v/v) glycerol at pH 7.4. The homogenate was centrifuged twice at 17,000× g for 30 min. […]
(§3) The quantity of the lipid peroxidation product MDA was assessed using the method described by Deby and Goutier.

[3] = system: isolated rat brain mitochondria; assay: t-BuOOH-induced oxidative stress in isolated rat brain mitochondria; assay type: cell-based; settings: compound 50 µM with t-BuOOH 75 μM
Method: as §1
The mitochondria were prepared by multiple differential fractionation using a Percoll gradient.
The mitochondria were incubated with 75 μM t-BuOOH [57].
After incubation of the mitochondria, 0.3 mL 0.2% TBA and 0.25 mL sulfuric acid (0.05 M) were added to stop the reaction. The tubes were maintained at 100 °C for 30 min. In the next stage, centrifugation of the tubes was carried out at 3500× g for 10 min. Assessment of the total quantity of MDA formed in each sample was measured in the supernatant at 532 nm.
After incubation of mitochondria, 0.04% DTNB was mixed with the mitochondrial suspensions in 0.1 M phosphate buffer (pH 7.4). The absorbance of the yellow product was measured at 412 nm.

[4] = system: isolated rat brain microsomes; assay: FeSO4/ascorbic acid-induced lipid peroxidation in isolated rat brain microsomes; assay type: cell-based; settings: compound 50 μM with Fe/AA
Method: as §1, §2, §3

T1 sequence (O42275 24-633): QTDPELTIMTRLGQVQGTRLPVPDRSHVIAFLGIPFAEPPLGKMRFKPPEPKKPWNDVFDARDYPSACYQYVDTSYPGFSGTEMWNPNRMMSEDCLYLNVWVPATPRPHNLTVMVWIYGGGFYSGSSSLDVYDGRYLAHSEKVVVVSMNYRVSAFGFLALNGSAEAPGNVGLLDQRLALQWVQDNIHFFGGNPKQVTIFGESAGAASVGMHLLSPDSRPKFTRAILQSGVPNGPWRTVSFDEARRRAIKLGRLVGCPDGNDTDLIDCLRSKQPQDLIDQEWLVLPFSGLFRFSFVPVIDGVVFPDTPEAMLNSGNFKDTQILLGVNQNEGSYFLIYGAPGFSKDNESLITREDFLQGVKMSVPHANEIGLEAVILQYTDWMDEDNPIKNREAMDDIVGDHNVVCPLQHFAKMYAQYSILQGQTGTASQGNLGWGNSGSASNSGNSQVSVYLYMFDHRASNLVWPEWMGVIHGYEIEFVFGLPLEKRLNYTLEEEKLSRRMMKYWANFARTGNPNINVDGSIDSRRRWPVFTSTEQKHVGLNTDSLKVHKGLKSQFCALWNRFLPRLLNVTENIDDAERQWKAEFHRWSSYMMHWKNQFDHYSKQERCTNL

SMILES	inhibition at 200 µM (AChE) [%]	IC50 (AChE) [µM]	fold lower AChE inhibition potency compared to EM-DC-2 (AChE; ratio of AChE potencies)	IC50 [1] [µM]	inhibition at 1 µM [1] [%]	increase of MDA production compared to the control [2] [%]	decrease of MDA production compared to the toxic agent [3] [%]	preservation of GSH level compared to toxic t-BuOOH [3] [%]	decrease of MDA production compared to the toxic agent [4] [%]	inhibition at 1 µM ([1]; 1 µM compound) [%]	IC50 ([1]; means ± SD of three experiments, read-out: MAO-A IC50) [µM]
Cc1ccc(C)n1C(Cc1cnc[nH]1)C(=O)O (centres unmarked) [EM-DC-19, 2-(2,5-dimethyl-1H-pyrrol-1-yl)-3-(2H-imidazol-4-yl)propanoic acid]	73.98 ± 0.59	76.2 ± 6.12	approximately 100 fold	> 100	99 ± 6.1	20	52	30	60		
Cc1ccc(C)n1-c1ccc(CC(=O)O)cc1 [EM-DC-27, [4-(2,5-dimethyl-1H-pyrrol-1-yl)phenyl]acetic acid]	26.5 ± 2.36	> 200				40	48	30	56	99 ± 7.1	> 100

Reference: PMC12655551, “Design, Synthesis, and Evaluation of Pyrrole-Based Selective MAO-B Inhibitors with Additional AChE Inhibitory and Neuroprotective Properties Identified via Virtual Screening” (Pharmaceuticals, 2025)
